In ChEMBL document CHEMBL3779772, “Synthesis of tetracyclic iminosugars fused benzo[e][1,3]thiazin-4-one and their HIV-RT inhibitory activity” (Bioorg Med Chem Lett, 2016):

These compounds were tested against Human immunodeficiency virus type 1 reverse transcriptase (Human immunodeficiency virus 1, UniProt Q72547) (assay: Inhibition of HIV1 reverse transcriptase using DIG-labeled dNTPs as substrate after 1 hr by ELISA).

Going from `C[C@H]1C(=O)N2C[C@@H](O)[C@@H](O)[C@@H]2[C@@H]2Sc3ccccc3C(=O)N12` to `C[C@H]1C(=O)N2C[C@@H](O)[C@@H](O)[C@@H]2[C@H]2Sc3ccccc3C(=O)N21`, the IC50 falls from 9.65 µM to 4.21 µM (2.3-fold). The second is the more potent here.

First: C[C@@H]1C(=O)N2C[C@@H](O)[C@@H](O)[C@@H]2[C@@H]2Sc3ccccc3C(=O)N12
Second: O=C1CN2C(=O)c3ccccc3S[C@@H]2[C@H]2[C@H](O)[C@H](O)CN12
The IC50 of the first is 2.5-fold higher: 2.01 µM for the first, 0.82 µM for the second.

`O=C1CN2C(=O)c3ccccc3S[C@H]2[C@H]2[C@H](O)[C@H](O)CN12` showed an IC50 of 8.21 µM.
